Read-outs that look alike come from different tables or passages of the source.
Assays:
hepatitis C replicon = hepatitis C replicon EC50 assay; type: cell-based; conditions: Hepatitis C virus
Method in brief: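 Buffer: 50 mM Tris-HCl pH 7.5, 15% glycerol, 0.6 mM LDAO, 25 μM NS4A peptide, 10 mM DTT, at 23° C. (ambient). EC50 follows a referenced published replicon protocol.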

NS3/NS4 complexes = NS3/NS4 complexes (Hepatitis C virus genotype 1a, UniProt P27958); experiment: NS3/NS4 inhibition assay (IC50); type: biochemical; conditions: NS3/NS4 activity; 23° C., 25 μM NS4A peptide
Method in brief: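 Read-outs are IC50 for inhibition of the NS3/NS4 complex and EC50 in an HCV replicon system. Biochemical runs use 23° C. and a 50 mM Tris-HCl (pH 7.5) buffer with 15% glycerol, 10 mM DTT, 0.6 mM LDAO and 25 μM NS4A peptide.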

[1] = hepatitis C replicon, read-out: EC50

NS3/NS4 complexes, sequence (P27958 1027-1657, one chain of several): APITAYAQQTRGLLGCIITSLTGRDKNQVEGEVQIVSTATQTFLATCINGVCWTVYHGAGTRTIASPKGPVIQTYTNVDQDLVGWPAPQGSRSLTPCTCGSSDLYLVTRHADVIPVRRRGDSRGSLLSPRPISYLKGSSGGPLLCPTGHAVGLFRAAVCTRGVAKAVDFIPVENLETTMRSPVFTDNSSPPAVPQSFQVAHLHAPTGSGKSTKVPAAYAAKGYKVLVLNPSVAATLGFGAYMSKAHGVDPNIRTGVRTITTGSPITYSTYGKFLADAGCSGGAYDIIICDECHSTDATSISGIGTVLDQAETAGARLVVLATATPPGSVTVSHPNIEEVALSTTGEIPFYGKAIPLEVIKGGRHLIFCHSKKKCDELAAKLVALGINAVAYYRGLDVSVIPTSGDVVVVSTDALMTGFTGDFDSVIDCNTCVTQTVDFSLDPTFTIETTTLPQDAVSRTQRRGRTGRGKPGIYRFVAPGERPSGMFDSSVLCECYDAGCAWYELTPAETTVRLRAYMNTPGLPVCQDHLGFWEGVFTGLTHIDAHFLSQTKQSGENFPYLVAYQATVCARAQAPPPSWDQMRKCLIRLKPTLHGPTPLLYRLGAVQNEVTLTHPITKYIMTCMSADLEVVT

SMILES | EC50 (hepatitis C replicon; [1]) [nM] | IC50 (NS3/NS4 complexes) [nM] | EC50 (hepatitis C replicon) [nM]
Cc1cnc(-c2cccc3c2nc(O[C@@H]2C[C@H]4C(=O)N[C@]5(C(=O)NS(=O)(=O)N(C)C)C[C@H]5/C=C\CCCCC[C@H](NC(=O)OC(C)(C)C)C(=O)N4C2)n3C(C)C)s1 [Compound 229] | < 10 | < 10 | 
Cc1csc(-c2cccc3c2nc(O[C@@H]2C[C@H]4C(=O)N[C@]5(C(=O)NS(=O)(=O)C6CC6)C[C@H]5/C=C\CCCCC[C@H](NC(=O)OC(C)(C)C)C(=O)N4C2)n3C(C)C)n1 [Compound 215] | < 10 | < 10 | 
Cc1cnc(-c2cccc3c2nc(O[C@@H]2C[C@H]4C(=O)N[C@]5(C(=O)NS(=O)(=O)C6CC6)C[C@H]5/C=C\CCCCC[C@H](NC(=O)OC(C)(C)C)C(=O)N4C2)n3C(C)C)s1 [Compound 216] | < 10 | < 10 | 
CC(C)n1c(O[C@@H]2C[C@H]3C(=O)N[C@]4(C(=O)NS(=O)(=O)N(C)C)C[C@H]4/C=C\CCCCC[C@H](NC(=O)OC(C)(C)C)C(=O)N3C2)nc2c(-c3nc(Cc4ccc(F)c(F)c4)cs3)cccc21 [Compound 1755] | 10 to 100 | < 10 | 
COc1ccc2c(O[C@@H]3C[C@H]4C(=O)N[C@]5(C(=O)NS(=O)(=O)C6(C)CC6)C[C@H]5/C=C\CCCCC[C@H](Nc5cccc(N)c5)C(=O)N4C3)cc(-c3nc(C(C)C)cs3)nc2c1C [Compound 102] |  | < 10 | < 10
CC(C)n1c(O[C@@H]2C[C@H]3C(=O)N[C@]4(C(=O)NS(=O)(=O)C5(C)CC5)C[C@H]4/C=C\CCCCC[C@H](NC(=O)OC(C)(C)C)C(=O)N3C2)nc2c(-c3nc4c(s3)CCC4)cccc21 [Compound 1765] | < 10 | < 10 | 
CC(C)n1c(O[C@@H]2C[C@H]3C(=O)N[C@]4(C(=O)NS(=O)(=O)C5(C)CC5)C[C@H]4/C=C\CCCCC[C@H](Nc4ccccc4)C(=O)N3C2)nc2c(-c3cccc(C(F)(F)F)c3)cccc21 [Compound 251] | > 100 | < 10 | 
CC(C)n1c(O[C@@H]2C[C@H]3C(=O)N[C@]4(C(=O)NS(=O)(=O)C5(C)CC5)C[C@H]4/C=C\CCCCC[C@H](NC(=O)OC(C)(C)C)C(=O)N3C2)nc2c(-c3ncco3)cccc21 [Compound 235] | < 10 | < 10 | 
CC(C)n1c(O[C@@H]2C[C@H]3C(=O)N[C@]4(C(=O)NS(=O)(=O)C5(C)CC5)C[C@H]4/C=C\CCCCC[C@H](NC(=O)OC(C)(C)C)C(=O)N3C2)nc2c(-c3nc(C4CC4)cs3)cccc21 [Compound 1777] | < 10 | < 10 | 
COc1ccc2c(O[C@@H]3C[C@H]4C(=O)N[C@]5(C(=O)NS(=O)(=O)C6CC6)C[C@H]5/C=C\CCCCN(c5ccccc5)C(=O)[C@@H]4C3)cc(-c3nc(C(C)C)cs3)nc2c1C [Compound 1601] | > 100 | < 10 | 
CN(C)S(=O)(=O)NC(=O)[C@@]12C[C@H]1/C=C\CCCCC[C@H](NC(=O)OC(C)(C)C)C(=O)N1C[C@H](Oc3nc4ccccc4n3C3CC3)C[C@H]1C(=O)N2 [Compound 205] | < 10 | < 10 | 
CC(C)Cc1nc2ccccc2nc1O[C@@H]1C[C@H]2C(=O)N[C@]3(C(=O)NS(=O)(=O)N(C)C)C[C@H]3/C=C\CCCCC[C@H](NC(=O)OC(C)(C)C)C(=O)N2C1 [Compound 307] | 10 to 100 | < 10 | 
CC(C)n1c(O[C@@H]2C[C@H]3C(=O)N[C@]4(C(=O)NS(=O)(=O)N(C)C)C[C@H]4/C=C\CCCCC[C@H](NC(=O)OC(C)(C)C)C(=O)N3C2)nc2c(-c3csc(N4CCOCC4)n3)cccc21 [Compound 1741] | < 10 | < 10 | 
COc1ccc2c(O[C@@H]3C[C@H]4C(=O)N[C@]5(C(=O)NS(=O)(=O)C6(C)CC6)C[C@H]5/C=C\CCCCC[C@H](Nc5cccc(C(=O)N6CCOC(C)C6)c5)C(=O)N4C3)cc(-c3nc(C(C)C)cs3)nc2c1C (stereo partly drawn) [Compound 109] | < 10 | < 10 | 
CC(C)NC(=O)Nc1cccc2c1nc(O[C@@H]1C[C@H]3C(=O)N[C@]4(C(=O)NS(=O)(=O)N(C)C)C[C@H]4/C=C\CCCCC[C@H](NC(=O)OC(C)(C)C)C(=O)N3C1)n2C(C)C [Compound 1421] | < 10 | < 10 | 
CC(C)n1c(O[C@@H]2C[C@H]3C(=O)N[C@]4(C(=O)NS(=O)(=O)C5(C)CC5)C[C@H]4/C=C\CCCCC[C@H](Nc4ccc(F)c(C(F)(F)F)c4)C(=O)N3C2)nc2cncnc21 [Compound 502] | 10 to 100 | < 10 | 
CC(C)n1c(O[C@@H]2C[C@H]3C(=O)N[C@]4(C(=O)NS(=O)(=O)N(C)C)C[C@H]4/C=C\CCCCC[C@H](NC(=O)OC(C)(C)C)C(=O)N3C2)nc2c(Cl)cccc21 [Compound 264] | < 10 | < 10 | 
CC(C)n1c(O[C@@H]2C[C@H]3C(=O)N[C@]4(C(=O)NS(=O)(=O)C5(C)CC5)C[C@H]4/C=C\CCCCC[C@H](Nc4ccccc4)C(=O)N3C2)nc2c(NC(=O)Nc3ccccc3)cccc21 [Compound 287] |  | < 10 | 10 to 100

SMILES | EC50 (hepatitis C replicon; [1]) [nM] | IC50 (NS3/NS4 complexes) [nM] | EC50 (hepatitis C replicon) [nM]
Cc1oc(-c2cccc3c2nc(O[C@@H]2C[C@H]4C(=O)N[C@]5(C(=O)NS(=O)(=O)N(C)C)C[C@H]5/C=C\CCCCC[C@H](NC(=O)OC(C)(C)C)C(=O)N4C2)n3C(C)C)nc1C(C)(C)C [Compound 1205] | < 10 | < 10 | 
CCn1c(O[C@@H]2C[C@H]3C(=O)N[C@]4(C(=O)NS(=O)(=O)N(C)C)C[C@H]4/C=C\CCCCC[C@H](NC(=O)OC(C)(C)C)C(=O)N3C2)nc2c(-c3nc(C(C)C)c(C)s3)cccc21 [Compound 1432] | 10 to 100 | < 10 | 
CN(C)S(=O)(=O)NC(=O)[C@@]12C[C@H]1/C=C\CCCCC[C@H](NC(=O)OC(C)(C)C)C(=O)N1C[C@H](Oc3nc4ccccc4n3C(C)(C)C)C[C@H]1C(=O)N2 [Compound 206] | < 10 | < 10 | 
CC(C)n1c(O[C@@H]2C[C@H]3C(=O)N[C@]4(C(=O)NS(=O)(=O)C5(C)CC5)C[C@H]4/C=C\CCCCC[C@H](Nc4ccccc4)C(=O)N3C2)nc2c(-c3cccc(C(=O)N(C)C)c3)cccc21 [Compound 248] | 10 to 100 | < 10 | 
CC(C)n1c(O[C@@H]2C[C@H]3C(=O)N[C@]4(C(=O)NS(=O)(=O)C5(C)CC5)C[C@H]4/C=C\CCCCC[C@H](NC(=O)OC(C)(C)C)C(=O)N3C2)nc2c(-c3nc(Cc4cc(F)cc(F)c4)cs3)cccc21 [Compound 1722] | 10 to 100 | < 10 | 
CC(C)c1csc(-c2cccc3c2nc(O[C@@H]2C[C@H]4C(=O)N[C@]5(C(=O)NS(=O)(=O)C6(C)CC6)C[C@H]5/C=C\CCCCC[C@H](NC(=O)OC(C)(C)C)C(=O)N4C2)n3C(C)C)n1 [Compound 1403] | < 10 | < 10 | 
CC(C)n1c(O[C@@H]2C[C@H]3C(=O)N[C@]4(C(=O)NS(=O)(=O)C5(C)CC5)C[C@H]4/C=C\CCCCC[C@H](Nc4ccccc4)C(=O)N3C2)nc2c(-c3ccc(F)c(F)c3)cccc21 [Compound 243] | > 100 | < 10 | 
CC(C)n1c(O[C@@H]2C[C@H]3C(=O)N[C@]4(C(=O)NS(=O)(=O)C5CC5)C[C@H]4/C=C\CCCCC[C@H](NC(=O)OC(C)(C)C)C(=O)N3C2)nc2c(-c3cncs3)cccc21 [Compound 223] | < 10 | < 10 | 
CC(C)n1c(O[C@@H]2C[C@H]3C(=O)N[C@]4(C(=O)NS(=O)(=O)N(C)C)C[C@H]4/C=C\CCCCC[C@H](NC(=O)OC(C)(C)C)C(=O)N3C2)nc2c(C(=O)NCCc3ccccc3)cccc21 [Compound 284] |  | < 10 | < 10
COc1ccc(Cc2csc(-c3cccc4c3nc(O[C@@H]3C[C@H]5C(=O)N[C@]6(C(=O)NS(=O)(=O)N(C)C)C[C@H]6/C=C\CCCCC[C@H](NC(=O)OC(C)(C)C)C(=O)N5C3)n4C(C)C)n2)cc1OC [Compound 1757] | < 10 | < 10 | 
CC(C)n1c(O[C@@H]2C[C@H]3C(=O)N[C@]4(C(=O)NS(=O)(=O)C5CC5)C[C@H]4/C=C\CCCCC[C@H](NC(=O)OC(C)(C)C)C(=O)N3C2)nc2c(Br)cccc21 [Compound 224] | < 10 | < 10 | 
CC(C)n1c(O[C@@H]2C[C@H]3C(=O)N[C@]4(C(=O)NS(=O)(=O)N(C)C)C[C@H]4/C=C\CCCCC[C@H](NC(=O)OC(C)(C)C)C(=O)N3C2)nc2c(-c3nc(-c4ccccc4F)cs3)cccc21 [Compound 1747] | 10 to 100 | < 10 | 
CC(C)n1c(O[C@@H]2C[C@H]3C(=O)N[C@]4(C(=O)NS(=O)(=O)C5CC5)C[C@H]4/C=C\CCCCC[C@H](NC(=O)OC(C)(C)C)C(=O)N3C2)nc2c(-c3nc(-c4ccccc4)cs3)cccc21 [Compound 221] | < 10 | < 10 | 
Cc1ccccc1-c1cccc2c1nc(O[C@@H]1C[C@H]3C(=O)N[C@]4(C(=O)NS(=O)(=O)C5(C)CC5)C[C@H]4/C=C\CCCCC[C@H](Nc4ccccc4)C(=O)N3C1)n2C(C)C [Compound 250] | > 100 | < 10 | 
COc1ccc2c(O[C@@H]3C[C@H]4C(=O)N[C@]5(C(=O)NS(=O)(=O)C6(C)CC6)C[C@H]5/C=C\CCCCC[C@H](Nc5cccc(NC(=O)N6CCOCC6)c5)C(=O)N4C3)cc(-c3nc(C(C)C)cs3)nc2c1C [Compound 127] | < 10 | < 10 | 
Cc1nc2cc(O[C@@H]3C[C@H]4C(=O)N[C@]5(C(=O)NS(=O)(=O)C6(C)CC6)C[C@H]5/C=C\CCCCC[C@H](NC(=O)OC(C)(C)C)C(=O)N4C3)ccc2o1 [Compound 1251] | 10 to 100 | < 10 | 
CC(C)c1nc(-c2cccc3c2nc(O[C@@H]2C[C@H]4C(=O)N[C@]5(C(=O)NS(=O)(=O)C6(C)CC6)C[C@H]5/C=C\CCCCC[C@H](NC(=O)OC(C)(C)C)C(=O)N4C2)n3C(C)C)oc1C(C)C [Compound 1212] | < 10 | < 10 | 
CC(C)n1c(O[C@@H]2C[C@H]3C(=O)N[C@]4(C(=O)NS(=O)(=O)N(C)C)C[C@H]4/C=C\CCCCC[C@H](NC(=O)OC(C)(C)C)C(=O)N3C2)nc2c(-c3ncco3)cccc21 [Compound 227] | < 10 | < 10 | 

— patent US20110081315A1, “NOVEL MACROCYCLIC INHIBITORS OF HEPATITIS C VIRUS REPLICATION” (INTERMUNE, INC., priority 2009, published 2011)
